Measured values as given in patent US9096598B2 (Merck Sharp & Dohme Corp., priority 2011, dated 2015).

Key:
JAK3 = molecular target: T1, JAK3 (Homo sapiens, UniProt P52333); test: Jak Biochemical HTRF Assay (JAK3); conditions: recombinant purified GST-tagged catalytic domain, [ATP] 2.9 μM, values given as range classes
T1 construct: recombinant purified GST-tagged catalytic domain for each enzyme; purchased Invitrogen M4290
Experimental: (§1) Jak Biochemical HTRF Assay Protocol
(§2) The ability of compounds to inhibit the activity of JAK1, JAK2, JAK3, and Tyk2 was measured using a recombinant purified GST-tagged catalytic domain for each enzyme (Invitrogen JAK1 #M4290, JAK2 #M4290, JAK3 #M4290, Tyk2 #M4290) in an HTRF format biochemical assay. The reactions employed a common peptide substrate, LCB-EQEDEPEGDYFEWLW-NH2 (in-house). The basic assay protocol is as follows: First, 250 nL of diluted compounds in DMSO were dispensed into the wells of a dry 384-well Black plate (Greiner #781076) using a Labcyte Echo 555 acoustic dispenser. Subsequent reagent additions employed an Agilent Bravo. Next, 18 μL of 1.11× enzyme and 1.11× substrate in 1× assay buffer (Invitrogen kinase buffer #PV3189, 2 mM DTT, 0.05% BSA) were added to the wells and shaken and then preincubated for 30 minutes at room temperature to allow compound binding to equilibrate. After equilibration, 2 μL of 10×ATP in 1× assay buffer was added to initiate the kinase reaction and the plates were shaken and then incubated at room temperature for 120 minutes. At the end of the incubation, 20 μL of 2× stop buffer (streptavidin-Dylight 650 (Thermo #84547B/100 mL), Eu-tagged pY20 antibody (Perkin Elmer #AD0067), EDTA, HEPES, and Triton) was added to quench the reaction. Plates were shaken and centrifuged and then incubated 60 minutes at room temperature and then read on a Perkin Elmer Envision (λex=337 nm, λem=665 and 615 nm, TRF delay time=20 μs). HTRF signal=10,000*665 nm reading/615 nm reading. After normalization to untreated controls, the percent inhibition of the HTRF signal at each compound concentration was calculated. The plot of percent inhibition versus the log of compound concentration was fit with a 4-parameter dose response equation to calculate IC50 values.
(§3) Final reaction conditions were:
(§4) Examples of the instant invention were evaluated in JAK2 and JAK3 in vitro binding assays. Table 13 tabulates the biological data disclosed for the instant invention as a range of JAK2 and JAK3 IC50 values (A: IC50≦10 nM; B: 10 nM>IC50≦500 nM C: IC50>500 nM).

JAK2 = molecular target: T2, JAK2 (Homo sapiens, UniProt O60674); test: Jak Biochemical HTRF Assay (JAK2); conditions: recombinant purified GST-tagged catalytic domain, [ATP] 8.5 μM, values given as range classes
T2 construct: recombinant purified GST-tagged catalytic domain for each enzyme; purchased Invitrogen M4290
T2 sequence (O60674 849-1124 limits assumed): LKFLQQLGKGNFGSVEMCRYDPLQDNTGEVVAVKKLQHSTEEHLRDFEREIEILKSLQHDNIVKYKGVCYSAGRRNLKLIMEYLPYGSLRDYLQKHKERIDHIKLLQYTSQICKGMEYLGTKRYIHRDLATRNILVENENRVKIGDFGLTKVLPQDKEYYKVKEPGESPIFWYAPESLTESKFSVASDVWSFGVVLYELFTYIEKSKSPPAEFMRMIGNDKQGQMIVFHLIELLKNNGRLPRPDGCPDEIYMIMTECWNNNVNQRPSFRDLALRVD
Experimental: as §1, §2, §3, §4

T1 sequence (P52333 822-1111 limits assumed): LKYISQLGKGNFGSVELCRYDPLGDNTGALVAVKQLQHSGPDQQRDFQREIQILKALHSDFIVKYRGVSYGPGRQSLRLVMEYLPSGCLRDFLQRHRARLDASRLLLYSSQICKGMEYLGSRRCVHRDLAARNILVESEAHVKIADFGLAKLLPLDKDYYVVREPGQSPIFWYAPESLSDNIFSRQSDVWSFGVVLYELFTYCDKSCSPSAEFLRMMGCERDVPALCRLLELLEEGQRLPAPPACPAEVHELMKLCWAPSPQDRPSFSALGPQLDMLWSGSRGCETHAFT

## C[C@H](Nc1cc(-c2c[nH]c3ncc(Cl)cc23)cnc1F)C(=O)NCC(F)(F)F [Example 1-39, N~2~-[5-(5-chloro-1H-pyrrolo[2,3-b]pyridin-3-yl)-2-fluoropyridin-3-yl]-N-(2,2,2-trifluoroethyl)alaninamide]
JAK3
  IC50: ≤ 10 nM
JAK2
  IC50: 10 to 500 nM

## CC(C)NC(=O)c1cnc2[nH]cc(-c3cncc(N[C@@H](C(=O)NCC(F)(F)F)C(C)C)c3)c2c1 [Example 3-2, N-(1-methylethyl)-3-[5-({(1R)-2-methyl-1-[(2,2,2-trifluoroethyl)carbamoyl]propyl}amino)pyridin-3-yl]-1H-pyrrolo[2,3-b]pyridine-5-carboxamide]
JAK3
  IC50: ≤ 10 nM
JAK2
  IC50: ≤ 10 nM

## CC(=O)NCc1cnc2[nH]cc(-c3cncc(N[C@H](C(=O)NCC(F)(F)F)C(C)C)c3)c2c1 [Example 10-5, N~2~-(5-{5-[(acetylamino)methyl]-1H-pyrrolo[2,3-b]pyridin-3-yl}pyridin-3-yl)-N-(2,2,2-trifluoroethyl)valinamide]
JAK3
  IC50: 10 to 500 nM
JAK2
  IC50: > 500 nM

## NC(=O)c1cnc2[nH]cc(-c3nncc(N[C@@H]4CCCC[C@@H]4C(=O)NCC(F)(F)F)n3)c2c1 [Example 1-23, 3-[5-({(1R,2S)-2-[(2,2,2-trifluoroethyl)carbamoyl]cyclo-hexyl}amino)-1,2,4-triazin-3-yl]-1H-pyrrolo[2,3-b]pyridine-5-carboxamide]
JAK3
  IC50: 10 to 500 nM
JAK2
  IC50: 10 to 500 nM

## CCC(=O)NCc1cnc2[nH]cc(-c3cncc(N[C@H](C(=O)NCC(F)(F)F)C(C)C)c3)c2c1 [Example 10-2, N~2~-(5-{5-[(propanoylamino)methyl]-1H-pyrrolo[2,3-b]pyridin-3-yl}pyridin-3-yl)-N-(2,2,2-trifluoroethyl)valinamide]
JAK3
  IC50: 10 to 500 nM
JAK2
  IC50: > 500 nM

## C[C@@H](Nc1cncc(-c2c[nH]c3ncc(F)cc23)c1)C(=O)NCC(F)(F)F [Example 1-30, N~2~-[5-(5-fluoro-1H-pyrrolo[2,3-b]pyridin-3-yl)pyridin-3-yl]-N-(2,2,2-trifluoroethyl)-D-alaninamide]
JAK3
  IC50: 10 to 500 nM
JAK2
  IC50: 10 to 500 nM

## CC(C)C(Nc1cncc(-c2c[nH]c3ncc(CNC(=O)C4CCCC4)cc23)c1)C(=O)NCC(F)(F)F (stereo not drawn) [Example 10-1, N-((3-(5-(3-methyl-1-oxo-1-(2,2,2-trifluoroethylamino)butan-2-ylamino)pyridin-3-yl)-1H-pyrrolo[2,3-b]pyridin-5-yl)methyl)cyclopentanecarboxamide]
JAK3
  IC50: 10 to 500 nM
JAK2
  IC50: > 500 nM

## CC(C)C(Nc1cncc(-c2c[nH]c3ncc(S(N)(=O)=O)cc23)c1)C(=O)NCC(F)(F)F (stereo not drawn) [Example 4-1, 3-Methyl-2-(5-(5-sulfamoyl-1H-pyrrolo[2,3-b]pyridin-3-yl)pyridin-3-ylamino)-N-(2,2,2-trifluoroethyl)butanamide]
JAK3
  IC50: ≤ 10 nM
JAK2
  IC50: 10 to 500 nM

## C[C@@H](Nc1cnnc(-c2c[nH]c3ncc(C(N)=O)cc23)n1)C(=O)NCC(F)(F)F [Example 1-14, 3-[5-({(1R)-1-methyl-2-oxo-2-[(2,2,2-trifluoroethyl)amino]ethyl}amino)-1,2,4-triazin-3-yl]-1H-pyrrolo[2,3-b]pyridine-5-carboxamide]
JAK3
  IC50: ≤ 10 nM
JAK2
  IC50: 10 to 500 nM

## CC(C)C(Nc1cncc(-c2c[nH]c3ncc(F)cc23)c1)C(=O)NCC(F)(F)F (stereo not drawn) [Example 1-2, 2-{[5-(5-fluoro-1H-pyrrolo[2,3-b]pyridin-3-yl)pyridin-3-yl]amino}-3-methyl-N-(2,2,2-trifluoroethyl)butanamide]
JAK3
  IC50: ≤ 10 nM
JAK2
  IC50: 10 to 500 nM

## Clc1cnc2[nH]cc(-c3cncc(N4CCCC4c4nccs4)c3)c2c1 (stereo not drawn) [Example 1-28, 5-chloro-3-{5-[2-(1,3-thiazol-2-yl)pyrrolidin-1-yl]pyridin-3-yl}-1H-pyrrolo[2,3-b]pyridine]
JAK3
  IC50: ≤ 10 nM
JAK2
  IC50: 10 to 500 nM

## CC(C)C(Nc1cncc(-c2c[nH]c3ncc(NC(=O)N[C@@H](C)C(=O)O)cc23)c1)C(=O)NCC(F)(F)F (stereo partly drawn) [Example 6-4, N-({3-[5-({2-methyl-1-[(2,2,2-trifluoroethyl)carbamoyl]propyl}amino)pyridin-3-yl]-1H-pyrrolo[2,3-b]pyridin-5-yl}carbamoyl)alanine]
JAK3
  IC50: ≤ 10 nM
JAK2
  IC50: 10 to 500 nM

## O=C(NCC(F)(F)F)[C@H]1CCCC[C@H]1Nc1cnnc(-c2c[nH]c3ncc(F)cc23)n1 [Example 1-21, (1S,2R)-2-{[3-(5-fluoro-1H-pyrrolo[2,3-b]pyridin-3-yl)-1,2,4-triazin-5-yl]amino}-N-(2,2,2-trifluoroethyl)cyclohexane-carboxamide]
JAK3
  IC50: 10 to 500 nM
JAK2
  IC50: > 500 nM

## CC(C)Oc1cnc2[nH]cc(-c3cncc(N[C@@H](C(=O)NCC(F)(F)F)C(C)C)c3)c2c1 [Example 2-3, N~2~-{5-[5-(1-methylethoxy)-1H-pyrrolo[2,3-b]pyridin-3-yl]pyridin-3-yl}-N-(2,2,2-trifluoroethyl)-D-valinamide]
JAK3
  IC50: ≤ 10 nM
JAK2
  IC50: 10 to 500 nM

## CC(C)=CC(=O)NCc1cnc2[nH]cc(-c3cncc(N[C@H](C(=O)NCC(F)(F)F)C(C)C)c3)c2c1 [Example 10-8, N~2~-[5-(5-{[(3-methylbut-2-enoyl)amino]methyl}-1H-pyrrolo[2,3-b]pyridin-3-yl)pyridin-3-yl]-N-(2,2,2-trifluoroethyl)valinamide]
JAK3
  IC50: 10 to 500 nM
JAK2
  IC50: 10 to 500 nM

## COCc1cnc2[nH]cc(-c3nncc(N[C@@H](C(=O)NCC(F)(F)F)C(C)C)n3)c2c1 [Example 9-8, N~2~-{3-[5-(methoxymethyl)-1H-pyrrolo[2,3-b]pyridin-3-yl]-1,2,4-triazin-5-yl}-N-(2,2,2-trifluoroethyl)-D-valinamide]
JAK3
  IC50: 10 to 500 nM
JAK2
  IC50: 10 to 500 nM

## O=C(NCC(F)(F)F)C(Nc1cncc(-c2c[nH]c3ncc(Cl)cc23)c1)C1CC1 (stereo not drawn) [Example 1-48, 2-{[5-(5-chloro-1H-pyrrolo[2,3-b]pyridin-3-yl)pyridin-3-yl]amino}-2-cyclopropyl-N-(2,2,2-trifluoroethyl)acetamide]
JAK3
  IC50: ≤ 10 nM
JAK2
  IC50: 10 to 500 nM

## CC(C)C(Nc1cncc(-c2c[nH]c3ncc(NS(C)(=O)=O)cc23)c1)C(=O)NCC(F)(F)F (racemic) [Example 5-3, N^2-(5-{5-[(methylsulfonyl)amino]-1H-pyrrolo[2,3-b]pyridin-3-yl}pyridin-3-yl)-N-(2,2,2-trifluoroethyl)valinamide]
JAK3
  IC50: 10 to 500 nM
JAK2
  IC50: 10 to 500 nM

## CC(C)[C@@H](Nc1cncc(-c2c[nH]c3ncc(C(=O)NCc4ccn[nH]4)cc23)c1)C(=O)NCC(F)(F)F [Example 3-10, 3-[5-({(1R)-2-methyl-1-[(2,2,2-trifluoroethyl)carbamoyl]propyl}amino)pyridin-3-yl]-N-(1H-pyrazol-5-ylmethyl)-1H-pyrrolo[2,3-b]pyridine-5-carboxamide]
JAK3
  IC50: ≤ 10 nM
JAK2
  IC50: 10 to 500 nM

## CCOC(=O)Nc1cnc2[nH]cc(-c3cncc(NC(C(=O)NCC(F)(F)F)C(C)C)c3)c2c1 (stereo not drawn) [Example 7-2, ethyl {3-[5-({2-methyl-1-[(2,2,2-trifluoroethyl)carbamoyl]propyl}amino)pyridin-3-yl]-1H-pyrrolo[2,3-b]pyridin-5-yl}carbamate]
JAK3
  IC50: 10 to 500 nM
JAK2
  IC50: 10 to 500 nM

## CC(C)[C@@H](Nc1cncc(-c2c[nH]c3ncc(COC4CCN(C(=O)OC(C)(C)C)CC4)cc23)c1)C(=O)NCC(F)(F)F [Example 9-6, tert-butyl 4-({3-[5-({(1R)-2-methyl-1-[(2,2,2-trifluoroethy)carbamoyl]propyl}amino)pyridin-3-yl]-1H-pyrrolo[2,3-b]pyridin-5-yl}methoxy)piperidine-1-carboxylate]
JAK3
  IC50: ≤ 10 nM
JAK2
  IC50: 10 to 500 nM

## CC(C)[C@H](Nc1cncc(-c2c[nH]c3ncc(OCCN4CCN(C)CC4)cc23)c1)C(=O)NCC(F)(F)F [Example 2-17, N~2~-(5-{5-[2-(4-methylpiperazin-1-yl)ethoxy]-1H-pyrrolo[2,3-b]pyridin-3-yl}pyridin-3-yl)-N-(2,2,2-trifluoroethyl)valinamide]
JAK3
  IC50: ≤ 10 nM
JAK2
  IC50: 10 to 500 nM

## CC(C)[C@@H](Nc1cncc(-c2c[nH]c3ncc(C(=O)N4CCC(O)CC4)cc23)c1)C(=O)NCC(F)(F)F [Example 3-13, N~2~-(5-{5-[(4-hydroxypiperidin-1-yl)carbonyl]-1H-pyrrolo[2,3-b]pyridin-3-yl}pyridin-3-yl)-N-(2,2,2-trifluoroethyl)-D-valinamide]
JAK3
  IC50: 10 to 500 nM
JAK2
  IC50: > 500 nM

## CC(C)(O)[C@@H](Nc1cncc(-c2c[nH]c3ncc(Cl)cc23)c1)C(=O)NCC(F)(F)F [Example 1-49, N~2~-[5-(5-chloro-1H-pyrrolo[2,3-b]pyridin-3-yl)pyridin-3-yl]-3-hydroxy-N-(2,2,2-trifluoroethyl)-D-valinamide]
JAK3
  IC50: ≤ 10 nM
JAK2
  IC50: 10 to 500 nM
